The record followed here is patent publication US5668161A, “Substituted thiazoles for the treatment of inflammation” (G.D. Searle & Co., priority 1996, dated 1997).

For one assay, the system named is carrageenan foot edema. In words: Rat Carrageenan Foot Pad Edema Test. It counts as in vivo, rat (Male Sprague-Dawley). Conditions: oral, 3 hours after carrageenan, read-out: RAT PAW EDEMA % Inhibition; for inhibition at 20 mg/kg: @ 20 mg/kg body weight. The procedure:
Male Sprague-Dawley rats were selected in each group so that the average body weight was as close as possible. Rats were fasted with free access to water for over sixteen hours prior to the test. […] One hour later a subplantar injection of 0.1 mL of 1% solution of carrageenan/sterile 0.9% saline was administered and the volume of the injected foot was measured with a displacement plethysmometer connected to a pressure transducer with a digital indicator. Three hours after the injection of the carrageenan, the volume of the foot was again measured. […] Rat Carrageenan-induced Analgesia Test
Background: Carrageenan injected into the paw causes an acute inflammation.

A further assay addresses T1, murine COX-II (Mus musculus, UniProt Q05769).
T1 sequence (Q05769 18-604): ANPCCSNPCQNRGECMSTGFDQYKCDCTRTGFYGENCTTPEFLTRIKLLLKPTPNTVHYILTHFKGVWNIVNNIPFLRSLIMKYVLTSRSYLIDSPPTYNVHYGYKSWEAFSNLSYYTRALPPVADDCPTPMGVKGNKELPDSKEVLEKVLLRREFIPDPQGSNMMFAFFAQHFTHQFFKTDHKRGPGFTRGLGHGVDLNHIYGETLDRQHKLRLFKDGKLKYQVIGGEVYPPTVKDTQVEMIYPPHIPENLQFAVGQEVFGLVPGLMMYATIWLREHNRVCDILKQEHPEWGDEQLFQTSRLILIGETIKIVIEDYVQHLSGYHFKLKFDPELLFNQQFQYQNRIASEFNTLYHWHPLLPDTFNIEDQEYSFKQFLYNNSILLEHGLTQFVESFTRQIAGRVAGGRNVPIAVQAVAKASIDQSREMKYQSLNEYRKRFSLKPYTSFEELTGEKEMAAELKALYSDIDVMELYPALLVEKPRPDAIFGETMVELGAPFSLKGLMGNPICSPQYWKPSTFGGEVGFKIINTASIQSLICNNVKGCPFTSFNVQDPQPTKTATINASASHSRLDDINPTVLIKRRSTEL
Description: biochemical.

Another assay addresses T2, murine COX-I (Mus musculus, UniProt P22437).
T2 sequence (P22437 27-602): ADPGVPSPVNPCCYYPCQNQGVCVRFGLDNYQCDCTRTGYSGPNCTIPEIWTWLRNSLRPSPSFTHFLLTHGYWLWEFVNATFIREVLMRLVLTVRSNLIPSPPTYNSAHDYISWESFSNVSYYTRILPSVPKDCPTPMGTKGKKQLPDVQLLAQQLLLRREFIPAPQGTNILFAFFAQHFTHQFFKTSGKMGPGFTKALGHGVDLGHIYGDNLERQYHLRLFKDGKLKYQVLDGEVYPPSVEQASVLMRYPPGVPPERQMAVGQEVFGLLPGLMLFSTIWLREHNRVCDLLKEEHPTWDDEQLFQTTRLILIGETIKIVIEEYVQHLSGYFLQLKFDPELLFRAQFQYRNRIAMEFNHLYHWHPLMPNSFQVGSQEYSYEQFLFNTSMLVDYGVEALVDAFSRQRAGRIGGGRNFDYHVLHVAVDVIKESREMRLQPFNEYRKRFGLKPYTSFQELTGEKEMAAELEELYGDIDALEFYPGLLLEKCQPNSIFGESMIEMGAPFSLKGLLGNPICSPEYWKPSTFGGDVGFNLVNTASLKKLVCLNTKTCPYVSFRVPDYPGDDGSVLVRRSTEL
Description: COX I activity in vitro, murine (PGE2 by ELISA). (In an ELISA, binding on a coated surface is turned into a signal by an enzyme label.)

Regarding `CS(=O)(=O)c1ccc(-c2sc(-c3ccncc3)nc2-c2ccc(F)cc2)cc1` [Example 8, 4-(4-Fluorophenyl)-5-(4-methylsulfonylphenyl)-2-(4-pyridyl)thiazole], the inhibition (as a rule, the drop in the measured response relative to a control, in per cent) at 20 mg/kg with carrageenan foot edema was determined as 12%. Moreover, the results for the IC50 on murine COX-II and on murine COX-I were 200 nM and above 100000 nM, respectively.

For the compound `CS(=O)(=O)c1ccc(-c2sc(CS(=O)(=O)c3cccs3)nc2-c2ccc(F)cc2)cc1` [Example 13], the figures for the IC50 at murine COX-II and against murine COX-I were 1200 nM and above 30000 nM, respectively.

Turning to `CCOC(=O)c1nc(-c2ccc(F)cc2)c(-c2ccc(S(C)(=O)=O)cc2)s1` [Example 17, Ethyl [4-(4-fluorophenyl)-5-(4-methylsulfonylphenyl)-2-thiazolyl]carboxylate], the IC50 (as a rule, the concentration that gives 50% inhibition) on murine COX-II is 300 nM; against murine COX-I, above 10000 nM.

For `CC(C)(C)c1nc(-c2ccc(F)cc2)c(-c2ccc(S(C)(=O)=O)cc2)s1` [Example 18, 2-(tert-Butyl)-4-(4-fluorophenyl)-5-(4-methylsulfonylphenyl)thiazole], the results for the IC50 at murine COX-II and at murine COX-I were 150 nM and 5400 nM, respectively.

Compound `CS(=O)(=O)c1ccc(-c2sc(Cc3ccccc3)nc2-c2ccc(F)cc2)cc1` [Example 19, 2-Benzyl-4-(4-fluorophenyl)-5-(4-methylsulfonylphenyl)thiazole] had an IC50 at murine COX-I of 400 nM.

For `Cc1nc(-c2ccc(S(C)(=O)=O)cc2)c(-c2ccc(F)cc2)s1` [Example 20, 5-(4-Fluorophenyl)-4-(4-methylsulfonylphenyl)-2-methylthiazole], in the assay on carrageenan foot edema, the inhibition at 20 mg/kg came to 48%. Further, the IC50 at murine COX-II is 100 nM; at murine COX-I, above 10000 nM.

For the compound `CS(=O)(=O)c1ccc(-c2scnc2-c2ccc(F)cc2)cc1` [Example 22, 4-(4-Fluorophenyl)-5-(4-methylsulfonylphenyl)thiazole], the IC50 is 11200 nM against murine COX-II and above 100000 nM against murine COX-I.

Consider `CS(=O)(=O)c1ccc(-c2sc(-c3cccs3)nc2-c2ccc(F)cc2)cc1` [Example 24, 4-(4-Fluorophenyl)-5-(4-methylsulfonylphenyl)-2-(2-thienyl)thiazole], for which the inhibition at 10 mg/kg in the assay with carrageenan foot edema turned out to be 20%. Further, the IC50 at murine COX-II is below 100 nM; at murine COX-I, above 10000 nM.

For `CS(=O)(=O)c1ccc(-c2sc(-c3cccnc3)nc2-c2ccc(F)cc2)cc1` [Example 26, 4-(4-Fluorophenyl)-5-(4-methylsulfonylphenyl)-2-(3-pyridyl)thiazole], the IC50 on murine COX-I is above 100000 nM.

As to `CS(=O)(=O)c1ccc(-c2sc(CC#N)nc2-c2ccc(F)cc2)cc1` [Example 27, 2-(Cyanomethyl)-4-(4-fluorophenyl)-5-(4-methylsulfonylphenyl)thiazole], the IC50 was 200 nM on murine COX-II and above 10000 nM against murine COX-I.

Consider `Cc1nc(-c2ccc(F)cc2)c(-c2ccc(S(C)(=O)=O)cc2)s1` [Example 28, 4-(4-Fluorophenyl)-5-(4-methylsulfonylphenyl)-2-methylthiazole], for which the 50% inhibitory concentration (IC50) is below 100 nM on murine COX-II and above 10000 nM against murine COX-I.

With `CS(=O)(=O)c1ccc(-c2sc(N3CCCCC3)nc2-c2ccc(F)cc2)cc1` [Example 30, 4-(4-Fluorophenyl)-5-(4-methylsulfonylphenyl)-2-(1-piperidinyl)thiazole], the figures for the IC50 on murine COX-II and at murine COX-I were 300 nM and 900 nM, respectively.

Consider `CCCNc1nc(-c2ccc(F)cc2)c(-c2ccc(S(C)(=O)=O)cc2)s1` [Example 31, 4-(4-Fluorophenyl)-5-(4-methylsulfonylphenyl)-2-(1-propylamino)thiazole], for which the inhibition at 10 mg/kg with carrageenan foot edema was 27.5%. Further, the IC50 on murine COX-II is 100 nM; on murine COX-I, above 10000 nM.

For `CS(=O)(=O)c1ccc(-c2sc(-c3ccccc3Cl)nc2-c2ccccc2F)cc1` [Example 35, 2-(2-Chlorophenyl)-4-(2-fluorophenyl)-5-(4-methylsulfonylphenyl)thiazole], the inhibition at 20 mg/kg in the assay on carrageenan foot edema stood at 16%. On murine COX-I, this compound showed an IC50 above 100000 nM.

Turning to `CS(=O)(=O)c1ccc(-c2sc(COc3cccc(Cl)c3)nc2-c2ccc(F)cc2)cc1` [Example 37, 2-((3-Chlorophenoxy)methyl)-4-(4-fluorophenyl)-5-(4-methylsulfonylphenyl)thiazole], the inhibition at 20 mg/kg with carrageenan foot edema was 9%. Moreover, the IC50 against murine COX-II is below 100 nM; against murine COX-I it was above 100000 nM.

In the case of `Cc1nc(-c2nc(-c3ccc(F)cc3)c(-c3ccc(S(C)(=O)=O)cc3)s2)cs1` [Example 39, 4-(4-Fluorophenyl)-5-[4-(methylsulfonyl)phenyl]-2-(2-methyl-4-thiazolyl)thiazole], in the assay with carrageenan foot edema, the inhibition at 20 mg/kg was 19%. For the same compound, the IC50 at murine COX-II was 300 nM; on murine COX-I it was above 10000 nM.

For `CCc1nc(-c2ccc(F)cc2)c(-c2ccc(S(C)(=O)=O)cc2)s1` [Example 42, 2-Ethyl-4-(4-fluorophenyl)-5-(4-methylsulfonylphenyl)thiazole], the IC50 was below 100 nM at murine COX-II and 1900 nM against murine COX-I.

With `CS(=O)(=O)c1ccc(-c2sc(CCCc3ccccc3)nc2-c2ccc(F)cc2)cc1` [Example 43, 4-(4-Fluorophenyl)-5-(4-methylsulfonylphenyl)-2-(3-phenylpropyl)thiazole], the figures for the IC50 at murine COX-II and on murine COX-I were 1300 nM and 100000 nM, respectively.

`CS(=O)(=O)c1ccc(-c2sc(CCc3ccccc3)nc2-c2ccc(F)cc2)cc1` [Example 44, 4-(4-Fluorophenyl)-5-(4-methylsulfonylphenyl)-2-(2-phenylethyl)thiazole]: the IC50 on murine COX-I turned out to be 1700 nM.

Regarding `CS(=O)(=O)c1ccc(-c2sc(-c3ccccc3)nc2-c2ccc(F)cc2)cc1` [Example 45, 4-(4-Fluorophenyl)-5-(4-methylsulfonylphenyl)-2-phenylthiazole], the inhibition at 10 mg/kg in the assay on carrageenan foot edema worked out at 19%. For the same compound, the 50% inhibitory concentration (IC50) at murine COX-II is below 100 nM; against murine COX-I it was above 100000 nM.

`CCCCCCNc1nc(-c2ccc(F)cc2)c(-c2ccc(S(C)(=O)=O)cc2)s1` [Example 46, 4-(4-Fluorophenyl)-2-n-hexylamino-5-(4-methylsulfonylphenyl)thiazole]: in the assay with carrageenan foot edema, the inhibition at 10 mg/kg was 25%. Moreover, the figures for the IC50 on murine COX-II and at murine COX-I were below 100 nM and 1400 nM, respectively.

In the case of `CCCCNc1nc(-c2ccc(F)cc2)c(-c2ccc(S(C)(=O)=O)cc2)s1` [Example 47, 2-Butylamino-4-(4-fluorophenyl)-5-(4-methylsulfonylphenyl)thiazole], the inhibition at 20 mg/kg in the assay with carrageenan foot edema is 12%. In addition, the half-maximal inhibitory concentration (IC50) against murine COX-II was below 100 nM; at murine COX-I it was 1400 nM.

On to `CNc1nc(-c2ccc(F)cc2)c(-c2ccc(S(C)(=O)=O)cc2)s1` [Example 48, 4-(4-Fluorophenyl)-5-(4-methylsulfonylphenyl)-2-methylaminothiazole], for which the inhibition at 10 mg/kg in the assay on carrageenan foot edema was 15%. Also, the results for the IC50 on murine COX-II and against murine COX-I were 300 nM and above 10000 nM, respectively.

Take `COc1ccc(-c2nc(-c3ccc(F)cc3)c(-c3ccc(S(C)(=O)=O)cc3)s2)cc1` [Example 49, 4-(4-Fluorophenyl)-5-(4-methylsulfonylphenyl)-2-(4-methoxyphenyl)thiazole]: the inhibition at 10 mg/kg in the assay with carrageenan foot edema turned out to be 6%. The IC50 against murine COX-II was 300 nM; on murine COX-I, above 10000 nM.

With `CS(=O)(=O)c1ccc(-c2sc(Nc3ccc(C#N)cc3)nc2-c2ccc(F)cc2)cc1` [Example 53, 2-(4-Cyanophenylamino)-4-(4-fluorophenyl)-5-(4-methylsulfonylphenyl)-thiazole], the IC50 was 900 nM on murine COX-II and 200 nM at murine COX-I.

Take `CCOC(=O)c1cccc(Nc2nc(-c3ccc(F)cc3)c(-c3ccc(S(C)(=O)=O)cc3)s2)c1` [Example 54, Ethyl-[3-[4-(4-fluorophenyl)-5-(4-methylsulfonylphenyl)-2-thiazolyl]amino]benzoate]: the IC50 against murine COX-II came out at 1300 nM; against murine COX-I, 1100 nM.

As to `CCOC(=O)c1ccc(Nc2nc(-c3ccc(F)cc3)c(-c3ccc(S(C)(=O)=O)cc3)s2)cc1` [Example 55, Ethyl [4-[4-(4-fluorophenyl)-5-(4-methylsulfonylphenyl)-2-thiazolyl]amino]benzoate], the IC50 at murine COX-II is 3500 nM; against murine COX-I, above 10000 nM.
